Assay results reported in US20240174634A1, “Aldehyde Dehydrogenase Inhibitors and Their Therapeutic Use” (priority 2020, published 2024).

Key:
ALDH1A2 = target: T1, ALDH1A2 (Homo sapiens, UniProt O94788); experiment: Selectivity biochemical assay, NAD(P)H-Glo Detection System
T1 construct: His-tag; made in house; host or cells: E. coli Rosetta (DE3)
T1 sequence (O94788 1-518): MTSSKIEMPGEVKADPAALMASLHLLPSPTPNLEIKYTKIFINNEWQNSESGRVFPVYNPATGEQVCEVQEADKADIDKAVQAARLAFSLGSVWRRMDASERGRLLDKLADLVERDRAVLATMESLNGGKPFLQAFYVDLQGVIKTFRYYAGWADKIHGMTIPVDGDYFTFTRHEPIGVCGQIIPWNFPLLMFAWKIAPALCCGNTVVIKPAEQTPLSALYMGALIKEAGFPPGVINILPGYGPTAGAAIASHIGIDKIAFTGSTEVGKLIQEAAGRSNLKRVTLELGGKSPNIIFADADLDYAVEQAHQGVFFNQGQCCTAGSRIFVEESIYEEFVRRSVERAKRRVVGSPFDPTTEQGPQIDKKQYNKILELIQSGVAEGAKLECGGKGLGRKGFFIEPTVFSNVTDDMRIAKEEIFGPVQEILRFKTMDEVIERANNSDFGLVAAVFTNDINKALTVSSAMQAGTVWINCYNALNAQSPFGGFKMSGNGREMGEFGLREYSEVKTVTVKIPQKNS
Text: (§1) Cloning: Open reading frames corresponding to the protein coding sequences of full length human ALDH1A1 (Uniprot ID P00352), ALDH1A2 (094788) and ALDH1A3 (P47895) were polymerase chain reaction (PCR) amplified from human cDNA and inserted into the multi-cloning sites of the commercially available (Novagen) E. coli expression vectors pET47b (ALDH1A1, EcoRI restriction site; ALDH1A2, BamHI and EcoRI sites) or pET28a (ALDH1A3, NdeI and BamHI sites), using standard molecular genetic techniques. Recombinant DNA products were sequence verified prior to use in expression studies.
(§2) Expression: Expression constructs were transformed into the E. coli strain Rosetta (DE3) (Merck) and individual colonies used to inoculate 10 mL lysogen broth (LB) medium supplemented with kanamycin and chloramphenicol at 50 μg/mL and 34 μg/mL, respectively. Cultures were grown to saturation overnight at 37° C., prior to being used to sub-inoculate fresh 1 L LB medium cultures (plus antibiotics, as before). 1 L cultures were grown at 37° C., 200 rpm, throughout the day until the optical density at 600 nm (OD600) reached ˜0.8, at which point growth temperature was reduced to 18° C. and 1 mM isopropyl β-d-1-thiogalacto pyranoside (IPTG) added to induce protein expression.
(§3) Cultures were left overnight (at least 16 h) under these conditions and the following day harvested by centrifugation (4000 G, 10 minutes). Culture supernatant was discarded and cell pellets stored at −80° C. until further processing.
(§4) Purification: Cell pellets were thawed on ice, re-suspended in Ni Affinity Buffer A (20 mM HEPES pH 7.5, 300 mM NaCl, 20 mM imidazole, 1 mM tris(2-carboxyethyl)phosphine (TCEP)) with protease inhibitors (cOmplete Ultra protease inhibitor, Roche), and lysed by sonication. Lysates were clarified by centrifugation at 18,000 G, 4° C., for 40 minutes, and loaded directly onto a pre-equilibrated (Buffer A) 5 mL HisTrap Fast Flow column (GE Healthcare) by way of an AKTA Fast Protein Liquid Chromatography (FPLC) system. The column was sequentially treated with 6 column volumes (CV) 100% Buffer A, 8 CV of 90% Buffer A:10% Buffer B (20 mM 4-(2-hydroxyethyl)-1-piperazineethanesulfonic acid (HEPES) pH 7.5, 300 mM NaCl, 500 mM imidazole, 1 mM TCEP) and finally a linear gradient from 10-70% Buffer B over 8 CV to elute recombinant His-tagged protein. Relevant fractions (as measured by 280 nm absorbance) collected during elution were pooled and subjected to further purification by size exclusion chromatography (Superdex 200 26/600, GE Healthcare, running buffer 20 mM 2-(carbamoylmethylamino)ethanesulfonic acid (ACES) pH 7.5, 1 mM TCEP). Relevant fractions from this step were pooled, aliquoted, and stored at −80° C. until required for compound profiling assays.
(§5) Materials: ALDH2 was purchased from Abnova. Tris(hydroxymethyl)aminomethane (Tris) was purchased from MP Biomedicals. TCEP, ethylenediaminetetraacetic acid (EDTA), propionaldehyde, DMSO and Tween-20 were purchased from Sigma. Nicotinamide adenine dinucleotide (NAD) was obtained from Abcam. The NAD(P)H-Glo™ Detection System was purchased from Promega. White, non-binding surface, 384 well plates were supplied by Corning (#3574).
(§6) Method: Inhibition of ALDH1A3 was assessed using the NAD(P)H-Glo™ Detection System (Cat. No. G9062) from Promega. This assay detects the production of NADH from NAD by ALDH1A3 via the coupled enzymatic conversion of a proluciferin reductase substrate to generate a luminescent signal. Inhibition of ALDH1A3 by small molecule inhibitors will result in reduction or abrogation of luminescence signal increase above background. Inhibition of ALDH1A1, ALDH1A2 and ALDH2 (selectivity assays) were assessed using the same assay.
(§7) Compounds were dosed into Corning 384 well assay plates using an Echo acoustic dispenser to give 10 point curves in a 3-fold dilution series. Compounds were dispensed from a 20 mM DMSO stock and initially screened at a top concentration of 20 μM (ALDH1A3) or 250 μM (ALDH1A1, ALDH1A2 & ALDH2). […]

ALDH1A3 = target: T2, ALDH1A3 (Homo sapiens, UniProt P47895); experiment: Primary biochemical assay, NAD(P)H-Glo Detection System; set-up: His-tag; made in house; host or cells: E. coli Rosetta (DE3); conditions: 30 min pre-incubation, propionaldehyde and NAD at Km
T2 sequence (P47895 1-512): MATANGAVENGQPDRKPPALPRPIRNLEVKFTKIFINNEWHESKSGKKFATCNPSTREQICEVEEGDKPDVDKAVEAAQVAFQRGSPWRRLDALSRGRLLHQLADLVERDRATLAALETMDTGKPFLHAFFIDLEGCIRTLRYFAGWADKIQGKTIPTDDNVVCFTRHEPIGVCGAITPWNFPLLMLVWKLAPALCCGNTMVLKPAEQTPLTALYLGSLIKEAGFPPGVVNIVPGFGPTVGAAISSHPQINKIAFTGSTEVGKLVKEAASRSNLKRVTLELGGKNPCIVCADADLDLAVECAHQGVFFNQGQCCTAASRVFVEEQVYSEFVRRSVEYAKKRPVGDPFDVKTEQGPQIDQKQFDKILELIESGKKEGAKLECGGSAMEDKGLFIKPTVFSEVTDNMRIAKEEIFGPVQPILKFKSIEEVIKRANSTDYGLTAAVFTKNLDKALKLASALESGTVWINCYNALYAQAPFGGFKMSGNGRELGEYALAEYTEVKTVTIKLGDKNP
Text: as §1, §2, §3, §4, §5, §6, §7

Cc1nc(C2CCCN2CCOc2ccc3c(c2)CCC(=O)N3)cs1 (stereo not shown) [ALDHI-2033, 6-[2-[2-(2-methylthiazol-4-yl)pyrrolidin-1-yl]ethoxy]-3,4-dihydro-1H-quinolin-2-one]
IC50 (ALDH1A2): ≥ 100000 nM
IC50 (ALDH1A3): 100 to 1000 nM

Cc1ccc(C2CCCN2CCOc2ccc3c(c2)CCC(=O)N3)cn1 (stereo not shown) [ALDHI-2030, 6-[2-[2-(6-methyl-3-pyridyl)pyrrolidin-1-yl]ethoxy]-3,4-dihydro-1H-quinolin-2-one]
IC50 (ALDH1A2): 10000 to 100000 nM
IC50 (ALDH1A3): 100 to 1000 nM

O=C1CCc2cc(OCCN3CCCCC3c3cccc(F)c3)ccc2N1 (stereo not shown) [ALDHI-2038, 6-[2-[2-(3-fluorophenyl)-1-piperidyl]ethoxy]-3,4-dihydro-1H-quinolin-2-one]
IC50 (ALDH1A2): 1000 to 10000 nM
IC50 (ALDH1A3): < 100 nM

C[C@H](c1ccccc1)N(CCO)CCOc1ccc2c(c1)CCC(=O)N2 [ALDHI-3006, 6-[2-[2-hydroxyethyl-[(1R)-1-phenylethyl]amino]ethoxy]-3,4-dihydro-1H-quinolin-2-one]
IC50 (ALDH1A2): 1000 to 10000 nM
IC50 (ALDH1A3): 100 to 1000 nM

O=C1CCc2cc(OCCN3CCCC3c3cc(F)cc(F)c3)ccc2N1 (stereo not shown) [ALDHI-2032, 6-[2-[2-(3,5-difluorophenyl)pyrrolidin-1-yl]ethoxy]-3,4-dihydro-1H-quinolin-2-one]
IC50 (ALDH1A2): 100 to 1000 nM
IC50 (ALDH1A3): < 100 nM

O=C1CCc2cc(OCCN3CC(F)CC3c3cccc(F)c3)ccc2N1 (stereo not shown) [ALDHI-2052, 6-[2-[4-fluoro-2-(3-fluorophenyl)pyrrolidin-1-yl]ethoxy]-3,4-dihydro-1H-quinolin-2-one]
IC50 (ALDH1A2): 100 to 1000 nM
IC50 (ALDH1A3): < 100 nM

CN(CCOc1ccc2c(c1)CCC(=O)N2)C(=O)c1cccnc1 [ALDHI-3013, N-methyl-N-[2-[(2-oxo-3,4-dihydro-1H-quinolin-6-yl)oxy]ethyl]pyridine-3-carboxamide]
IC50 (ALDH1A2): ≥ 100000 nM
IC50 (ALDH1A3): 100 to 1000 nM

O=C1CCc2cc(OCCN3CCOCC3c3cccc(F)c3)ccc2N1 (stereo not shown) [ALDHI-2031, 6-[2-[3-(3-fluorophenyl)morpholin-4-yl]ethoxy]-3,4-dihydro-1H-quinolin-2-one]
IC50 (ALDH1A2): 100 to 1000 nM
IC50 (ALDH1A3): < 100 nM

O=C1COc2cc(OCCN3CCCC3c3cccc(F)c3)ccc2N1 (stereo not shown) [ALDHI-2009, 7-[2-[2-(3-fluorophenyl)pyrrolidin-1-yl]ethoxy]-4H-1,4-benzoxazin-3-one]
IC50 (ALDH1A2): 1000 to 10000 nM
IC50 (ALDH1A3): 100 to 1000 nM

O=C1CCc2cc(OCCN3C(=O)CCC3c3ccccc3)ccc2N1 (stereo not shown) [ALDHI-2051, 6-[2-(2-oxo-5-phenyl-pyrrolidin-1-yl)ethoxy]-3,4-dihydro-1H-quinolin-2-one]
IC50 (ALDH1A2): 1000 to 10000 nM
IC50 (ALDH1A3): < 100 nM

CCC1Oc2cc(OCCN3CCCC3c3cccc(F)c3)ccc2NC1=O (stereo not shown) [ALDHI-2045, 2-ethyl-7-[2-[2-(3-fluorophenyl)pyrrolidin-1-yl]ethoxy]-4H-1,4-benzoxazin-3-one]
IC50 (ALDH1A2): 1000 to 10000 nM
IC50 (ALDH1A3): < 100 nM

O=C1CCc2cc(OCCN3CCCC3c3ccccn3)ccc2N1 (stereo not shown) [ALDHI-2006, 6-[2-[2-(2-pyridyl)pyrrolidin-1-yl]ethoxy]-3,4-dihydro-1H-quinolin-2-one]
IC50 (ALDH1A2): 1000 to 10000 nM
IC50 (ALDH1A3): 100 to 1000 nM

CC1(c2ccccc2)COCCN1CCOc1ccc2c(c1)CCC(=O)N2 (stereo not shown) [ALDHI-2040, 6-[2-(3-methyl-3-phenyl-morpholin-4-yl)ethoxy]-3,4-dihydro-1H-quinolin-2-one]
IC50 (ALDH1A2): 100 to 1000 nM
IC50 (ALDH1A3): 100 to 1000 nM

Cn1cc(C2CCCN2CCOc2ccc3c(c2)SCC(=O)N3)cn1 (stereo not shown) [ALDHI-2026, 7-[2-[2-(1-methylpyrazol-4-yl)pyrrolidin-1-yl]ethoxy]-4H-1,4-benzothiazin-3-one]
IC50 (ALDH1A2): ≥ 100000 nM
IC50 (ALDH1A3): 100 to 1000 nM

O=C1CCc2cc(NC(=O)c3c[nH]nc3-c3cccc(F)c3)ccc2N1 [ALDHI-1006, 3-(3-fluorophenyl)-N-(2-oxo-1,2,3,4-tetrahydroquinolin-6-yl)-1H-pyrazole-4-carboxamide]
IC50 (ALDH1A3): 100 to 1000 nM

O=C1CCc2cc(NC(=O)c3scnc3-c3ccccc3Cl)ccc2N1 [ALDHI-1012, 4-(2-chlorophenyl)-N-(2-oxo-3,4-dihydro-1H-quinolin-6-yl)thiazole-5-carboxamide]
IC50 (ALDH1A3): 1000 to 10000 nM

O=C1CCc2cc(OCCN3CCC[C@H]3c3cccc(F)c3)ccc2N1 [ALDHI-2018, 6-[2-[(2S)-2-(3-fluorophenyl)pyrrolidin-1-yl]ethoxy]-3,4-dihydro-1H-quinolin-2-one]
IC50 (ALDH1A2): 100 to 1000 nM
IC50 (ALDH1A3): < 100 nM

O=C1CCc2cc(NC(=O)c3ncsc3-c3cccnc3)ccc2N1 [ALDHI-1010, N-(2-oxo-3,4-dihydro-1H-quinolin-6-yl)-5-(3-pyridyl)thiazole-4-carboxamide]
IC50 (ALDH1A2): 1000 to 10000 nM
IC50 (ALDH1A3): 1000 to 10000 nM

O=C1CCCc2cc(OCCN3CCCC3c3cccc(F)c3)ccc2N1 (stereo not shown) [ALDHI-2020, 7-[2-[2-(3-fluorophenyl)pyrrolidin-1-yl]ethoxy]-1,3,4,5-tetrahydro-1-benzazepin-2-one]
IC50 (ALDH1A2): 1000 to 10000 nM
IC50 (ALDH1A3): < 100 nM

O=C1CCc2cc(OCCN3CCCC3c3ccccc3F)ccc2N1 (stereo not shown) [ALDHI-2002, 6-[2-[2-(2-fluorophenyl)pyrrolidin-1-yl]ethoxy]-3,4-dihydro-1H-quinolin-2-one]
IC50 (ALDH1A2): 10000 to 100000 nM
IC50 (ALDH1A3): < 100 nM

O=C1CCc2cc(OCCN3CCCC3c3ccccc3)ccc2N1 (stereo not shown) [ALDHI-2019, 6-[2-(2-phenylpyrrolidin-1-yl)ethoxy]-3,4-dihydro-1H-quinolin-2-one]
IC50 (ALDH1A2): 100 to 1000 nM
IC50 (ALDH1A3): 100 to 1000 nM

Cc1cccc(C2CCCN2CCOc2ccc3c(c2)CCC(=O)N3)c1 (stereo not shown) [ALDHI-2011, 6-[2-[2-(m-tolyl)pyrrolidin-1-yl]ethoxy]-3,4-dihydro-1H-quinolin-2-one]
IC50 (ALDH1A2): 10000 to 100000 nM
IC50 (ALDH1A3): 100 to 1000 nM

O=C1CCc2cc(NC(=O)c3cncnc3-c3cccc(F)c3)ccc2N1 [ALDHI-1018, 4-(3-fluorophenyl)-N-(2-oxo-3,4-dihydro-1H-quinolin-6-yl)pyrimidine-5-carboxamide]
IC50 (ALDH1A3): 100 to 1000 nM
